Experimental data published in PubChem BioAssay (NCI).
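Step 1: Grow cells in 96-well plates. Step 2: Expose to compound for 48 hours at 5 concentrations. Step 3: Interpolate endpoints linearly; if unreached, use highest concentration. GI50 marks 50% less growth. TGI denotes the concentration required for complete inhibition of growth.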

How the values were obtained:
Test in all cases: growth of human tumour cells (NCI), 48 h
NCI-H23 lung = test system: NCI-H23 lung
LOX IMVI melanoma = test system: LOX IMVI melanoma
OVCAR-3 ovarian = test system: OVCAR-3 ovarian
COLO 205 colon = test system: COLO 205 colon
OVCAR-4 ovarian = test system: OVCAR-4 ovarian
CCRF-CEM leukemia = test system: CCRF-CEM leukemia
KM12 colon = test system: KM12 colon
SNB-19 CNS = test system: SNB-19 CNS
HT29 colon = test system: HT29 colon
RPMI-8226 leukemia = test system: RPMI-8226 leukemia

| SMILES | GI50 (NCI-H23 lung) | TGI (NCI-H23 lung) | GI50 (LOX IMVI melanoma) | TGI (LOX IMVI melanoma) | GI50 (OVCAR-3 ovarian) | TGI (OVCAR-3 ovarian) | GI50 (COLO 205 colon) | TGI (COLO 205 colon) | GI50 (OVCAR-4 ovarian) | TGI (OVCAR-4 ovarian) | GI50 (CCRF-CEM leukemia) | TGI (CCRF-CEM leukemia) | GI50 (KM12 colon) | TGI (KM12 colon) | GI50 (SNB-19 CNS) | TGI (SNB-19 CNS) | GI50 (HT29 colon) | TGI (HT29 colon) | TGI (RPMI-8226 leukemia) | GI50 (RPMI-8226 leukemia) |
| --- | --- | --- | --- | --- | --- | --- | --- | --- | --- | --- | --- | --- | --- | --- | --- | --- | --- | --- | --- | --- |
| Cc1nc2sccn2c1-c1nc2sccn2c1/C=C1/C(=O)Nc2ccccc21 | 9.44 µM | > 100 µM | 3.01 µM | > 100 µM | 1.7 µM | 6.24 µM | 2.63 µM | 10.5 µM | 13.8 µM | > 100 µM | 3.79 µM | > 100 µM | 1.76 µM | 14.6 µM | 3.52 µM | 23.9 µM | 2.96 µM | 10.7 µM | – | – |
| CCOc1ccc(NC(=O)CC2SC(=Nc3ccc(C)cc3C)NC2=O)cc1 (stereo not drawn) | – | > 100 µM | – | > 100 µM | – | > 100 µM | – | – | – | > 100 µM | – | > 100 µM | – | – | – | > 100 µM | – | > 100 µM | > 100 µM | – |
| CNc1cc2oc(=O)cc(C)c2cc1C | – | > 100 µM | – | > 100 µM | – | > 100 µM | – | > 100 µM | – | > 100 µM | – | > 100 µM | – | – | – | > 100 µM | – | > 100 µM | > 100 µM | – |
| c1ccc2c(c1)CCc1c(-c3ccncc3)n[nH]c1-2 | – | 58.3 µM | – | 54.8 µM | – | 33.3 µM | – | 63.3 µM | – | – | – | 61.7 µM | – | 55.7 µM | – | > 100 µM | – | > 100 µM | 84.2 µM | – |
| O=c1cccc(C#CC#C[C@@H]2O[C@H]2CO)o1 | 0.23 µM | 0.45 µM | 0.797 µM | 1.73 µM | 2.06 µM | 3.69 µM | 0.201 µM | 0.388 µM | – | – | 0.192 µM | – | 2.06 µM | 7.47 µM | 3.36 µM | 12 µM | 0.429 µM | 2.53 µM | 5.49 µM | 1.7 µM |
| FC(F)(F)c1ccc2nc(NCc3ccccc3)c(-c3ccccc3)nc2c1 | – | > 100 µM | – | 52.7 µM | – | > 100 µM | – | > 100 µM | – | – | – | > 100 µM | – | – | – | > 100 µM | – | > 100 µM | 98.9 µM | – |
| COc1cccc2c1O/C(=C\c1ccc([N+](=O)[O-])s1)C2=O | 3.15 µM | > 100 µM | 3.15 µM | > 100 µM | 1.94 µM | 4.53 µM | 5.15 µM | > 100 µM | – | > 100 µM | 1.25 µM | > 23.4 µM | – | – | 4.21 µM | > 100 µM | 10.3 µM | 21.9 µM | > 20.6 µM | 1.7 µM |
| Cc1cc(C)nc(NS(=O)(=O)c2ccc(Nc3c4ccccc4nc4c(C(=O)N5CCN(CCO)CC5)cccc34)cc2)n1 | – | > 100 µM | – | > 100 µM | – | > 100 µM | – | > 100 µM | – | > 100 µM | – | > 100 µM | – | > 100 µM | – | > 100 µM | – | > 100 µM | – | – |
| COc1c(C)c(OCC=C(C)C)cc(CO)c1CO | – | > 100 µM | – | > 100 µM | – | – | – | > 100 µM | – | > 100 µM | – | > 100 µM | – | > 100 µM | – | > 100 µM | – | > 100 µM | > 100 µM | – |
| CCC(C)(C)n1c(C)nc2c1C(=O)c1ccccc1C2=O | – | 60.4 µM | – | 47.3 µM | – | > 100 µM | – | 46.2 µM | – | > 100 µM | – | > 100 µM | – | > 100 µM | – | > 100 µM | – | > 100 µM | – | – |
